Patent publication US6159988A, “Arylcycloalkyl derivatives, their production and their use” (Hoeschst Aktiengesellschaft, priority 1992, dated 2000)
Counter-ions that a name gives are not always drawn.

Key:
IL-1 = IL-1 release inhibition (Table 2); assay type: cell-based, human
Protocol: 10 ml of human blood were carefully drawn from the antecubital vein using a syringe containing 1 ml of a solution of 3.8% sodium citrate. After dilution with 10 ml PM 16 (Serva, Heidelberg, FRG) and underlayering with 15 ml Lymphoprep® (Molter GmbH), the sample was centrifuged at 400×g for 40 min at 20° C. The mononuclear cells forming a white ring between lymphoprep and plasma were carefully aspirated by a syringe, diluted 1:1 with PM 16 and centrifuged again at 400×g for 10 min. […] was washed with 10 ml RPMI 1640 (Gibco, Berlin, FRG), containing additionally 300 mg/l L-glutamine, 25 mmol/l […] HEPES, 100 μg/ml streptomycin and 100 μg/ml penicillin. Finally, using a Coulter counter IT, the cell suspension was adjusted to 5×10^6 cells/ml. The cells consist of approx. 90% lymphocytes and 10% monocytes.
10 μl DMSO/water (1:10, v/v), containing the test compound, was added to 480 μl of a suspension, containing 5×10^6 mononuclear cells. The synthesis of IL-1 was stimulated by the addition of 10 μl DSMO/water (1:10, v/v), containing 0,5 μg LPS (Salmonella abortus equi, Sigma). After incubation at 37° C. for 18 hours, the samples were cooled to 0° C. and centrifuged for 1 min. in a table centrifuge. 25 μl aliquots of the supernatant were assayed for IL-1 alpha activity using a commercially available 125-J-IL-1-alpha radioimmunoassay Kit (Amersham/UK), and for IL-1 beta in a similar way using the specific test kit. Control experiments were performed as described without test compound, or with cycloheximide as a test compound.

[1] = system: adjuvant arthritis in rats; test: Adjuvant-induced arthritis in rats; assay type: in vivo, rat (female Wistar); details: 30 mg/kg orally once every day for 12 days, compared to control
[2] = system: Cotton Pellet Granuloma in Rats; test: Inhibition of carrageenin cotton pellet granuloma in rats; assay type: in vivo, rat (Wistar); details: 30 mg/kg, p.o. × 5
Protocol: The implantation of carrageenin impregnated cotton pellets results in production of large, well-defined granuloma which are easily dissected. The potency of the compounds are assessed by measuring the reduction in granuloma tissue formation.
Cotton wool pellets weighing 40 mg were used for sterilization.
Pellets were dried overnight under a lamp. The pellets in the weight range of 42-44 mg were selected.
Rats (in groups of 6, male or female, Charles River, Wistar, weighing 140-150 g) were anaesthetized with ether. The back was shaved and cleaned; swabbed with alcohol and one centimeter incision was made in the lower midback. A small channel was made bilaterally using a blunt forceps and one cotton pellet placed in each channel. Air from the incision was removed and the wound was stitched. […] Three hours after the administration of the last dose on day 7, animals were sacrificed. The pellets were removed by cutting the skin along the dorsal midline and peeling the skin away from the bodywall in both lateral directions. The pellets were weighed and then placed in drying oven at 140° C. overnight. The dry weights were then recorded and the amount of granuloma was assessed by subtracting the original pellet weight from wet weights and dry weights. The data was evaluated using the difference of left and right weights (cf. Table 4).

[3] = system: experimental allergic encephalomyelitis (EAE) in guinea pigs; test: Experimental allergic encephalomyelitis (EAE) in guinea pigs; assay type: in vivo, guinea pig; details: 100 mg/kg p.o. once daily for 10 days
Text: This method permits the evaluation of the potential of the test compound in preventing the development of an autoimmune disorder leading to demyelination in the guinea pigs which can be equated to multiple sclerosis disease in humans. EAE is a reproducible chronic inflammatory autoimmune disease of the central nervous system in which an animal is immunized with either a homologous or heterologous extract of the whole brain and spinal cord, which contains the basic myelin protein together with Freund's Complete Adjuvant (FCA). A pathological condition would set in during ten to twenty days following immunization, which is characterized by weight loss, abnormal gait, mild to severe ataxia, paraparesis and moribund state leading to death. The potential of the test compounds to prevent this autoimmune condition was evaluated by observing the severity of the disease and mortality in comparison with untreated and hydrocortisone (standard drug) treated animals.
Guinea pigs (200-300 g) were randomly distributed into groups of 10 each after receiving 0.075 ml of it brain and spinal cord extract in FCA intradermally on the back and 0.050 ml intrapedally in one hind paw. Compound 9 of Table 2 was administered orally at 3 mg/kg once daily for 10 days. The standard compound was administered 100 mg/kg p.o. once daily for 10 days. The weights of the animals were noted every day. Eight days after the induction of the disease, the animals were rated regularly for the severity of the disease and mortality was monitored.

[4] = Homo sapiens, read-out: IL-1 Rel. Inhib.

`COc1ccc(CCC(=O)c2c(OC)cc(OC)c([C@@H]3CCCC[C@H]3OC(=O)CN)c2O)cc1OC` (relative stereo) [Compound 19 of Table 2, trans-(+/-)-1-[4,6-Dimethoxy-2-hydroxy-3-(2-(β-amino)acetoxy)cyclohexyl]phenyl-(3-(3,4-dimethoxy)phenyl)propanone hydrochloride monohydrate] showed an inhibition at 10 µM (IL-1; [4]) of 51%.

For `COc1cc(O)c(C(=O)/C=C/c2cccc(Br)c2)c(OC)c1[C@@H]1CCCC[C@H]1O` (racemic) [Compound 17 of Table 2, trans-(+/-)-2-[2,6-Dimethoxy-4-hydroxy-3-(3-(3-bromophenyl))prop-2-(E)-enoyl]phenylcyclohexanol], the “IL-1 Rel. Inhib.” value (IL-1; 10.8 μM) was 71%.

For `COc1cc(OC)c([C@@H]2CCCC[C@H]2OC(=O)CN2CCCCC2)c(O)c1C(=O)/C=C/c1cccc(Br)c1` (relative stereo) [Compound 4 of Table 2], the inhibition at 16 µM (IL-1; Homo sapiens, 16 μM, read-out: IL-1 Rel. Inhib.) was 43%.

Work on `COc1cc(OC)c([C@@H]2CCCC[C@H]2OC(=O)CN)c(O)c1C(=O)/C=C/c1cccc(Br)c1` (relative stereo) [Compound 3 of Table 2, trans-(+/-)-2-[4,6-Dimethoxy-2-hydroxy-3-(3-(3-bromophenyl)prop-2-(E)-enoyl)phenyl]cyclohexyl-2-amino acetate hydrochloride monohydrate] yielded an inhibition at 17 µM (IL-1; [4]) of 63%.

`COc1cc(OC)c([C@H]2CCCC[C@@H]2OC(=O)CN)c(O)c1C(=O)/C=C/c1cccc(Br)c1` [Compound 6 of Table 2, trans-(+)-2-[4,6-Dimethoxy-2-hydroxy-3-(3-(3-bromophenyl)prop-2-(E)-enoyl)phenyl]cyclohexyl-2-amino acetate hydrochloride monohydrate] showed an inhibition at 1 µM (IL-1; [4]) of 88%.

`COc1cc(OC)c([C@@H]2CCCC[C@H]2OC(=O)CN(C)C)c(O)c1C(=O)/C=C/c1cccc(Br)c1` (relative stereo) [Compound 2 of Table 2] was tested, and the inhibition at 17 µM (IL-1; [4]) was 50%.

`COc1cc(OC)c([C@@H]2CCCC[C@H]2O)c(O)c1C(=O)/C=C/c1cccc(C)c1` (relative stereo) [Compound 20 of Table 2] showed an inhibition at 10 µM (IL-1; [4]) of 49%.

In the case of `COc1cc(OC)c([C@@H]2CCCC[C@H]2O)c(O)c1C(=O)/C=C/c1cc(C)ccc1C` (relative stereo) [Compound 21 of Table 2, trans-(+/-)-2-[4,6-Dimethoxy-2-hydroxy-3-(3-(2,5-dimethylphenyl))prop-2-(E)-enoyl]phenylcyclohexanol monohydrate], the inhibition at 10 µM (IL-1; [4]) is reported as 96%.

`COc1cc(/C=C/C(=O)c2c(OC)cc(OC)c([C@@H]3CCCC[C@H]3O)c2O)cc(Br)c1OC` (relative stereo) [Compound 26 of Table 2] gave an inhibition at 9.5 µM (IL-1; Homo sapiens, 9.5 μM, read-out: IL-1 Rel. Inhib.) of 50%.

In the case of `COc1ccc([C@@H]2CCCC[C@H]2O)c(O)c1C(=O)/C=C/c1cccc(Br)c1.COc1ccc([C@@H]2CCCC[C@H]2O)c(O)c1C(=O)/C=C/c1cccc(Br)c1.O` (racemic) [Compound 18 of Table 2, trans-(+/-)-2-[2-Hydroxy-4-methoxy-3-(3-(3-bromophenyl))prop-2-(E)-enoyl)phenylcyclohexanol hemihydrate], the “IL-1 Rel. Inhib.” value (IL-1; 5 μM) is reported as 71%.

`COc1cc(OC)c([C@@H]2CCCC[C@H]2O)c(O)c1C(=O)CCc1cccc(Br)c1` (relative stereo) [Compound 12 of Table 2] gave an inhibition at 10.5 µM (IL-1; Homo sapiens, 10.5 μM, read-out: IL-1 Rel. Inhib.) of 26%.

In the case of `COc1cc(OC)c([C@H]2CCCC[C@@H]2O)c(O)c1C(=O)/C=C/c1cccc(Br)c1` [Compound 15 of Table 2, trans-(+)-2-[4,6-Dimethoxy-2-hydroxy-3-(3-(3-bromophenyl))prop-2-(E)-enoyl]phenylcyclohexanol], the inhibition at 0.3 µM (IL-1; [4]) is reported as 50%.

In the case of `COc1cc(OC)c([C@@H]2CCCC[C@H]2O)c(O)c1C(=O)/C=C/c1cccc(Br)c1` (relative stereo) [Compound 6 of Table 1], the “reduction in the uninjected paw volume” value [1] is reported as “very slight reduction”.

`COc1cc(OC)c([C@H]2CCCC[C@H]2O)c(O)c1C(=O)/C=C/c1cccc(Br)c1` (relative stereo) [Compound 11 of Table 2, cis-(+/-)-2-[4,6-Dimethoxy-2-hydroxy-3-(3-(3-bromophenyl))prop-2-(E)-enoyl]phenylcyclohexanol] was tested, and the inhibition at 10.8 µM (IL-1; Homo sapiens, 10.8 μM, read-out: IL-1 Rel. Inhib.) was 90%.

`COc1cc(OC)c([C@@H]2CCCC[C@H]2OC(C)=O)c(O)c1C(=O)/C=C/c1cccc(Br)c1` (relative stereo) [Compound 1 of Table 2] was tested, and the inhibition at 10 µM (IL-1; [4]) was 41%.

`COc1cc(OC)c([C@@H]2CCCC[C@H]2O)c(O)c1C(=O)/C=C/c1cccc(Br)c1` [Compound 14 of Table 2, trans-(-)-2-[4,6-Dimethoxy-2-hydroxy-3-(3-(3-bromophenyl))prop-2-(E)-enoyl]phenylcyclohexanol] showed an inhibition at 0.3 µM (IL-1; [4]) of 50%.

For `COc1cc(OC)c([C@@H]2CCCC[C@H]2OC(=O)CN)c(O)c1C(=O)/C=C/c1cccc(Br)c1` [Compound 5 of Table 2, trans-(-)-2-[4,6-Dimethoxy-2-hydroxy-3-(3-(3-bromophenyl)prop-2-(E)-enoyl)phenyl]cyclohexyl-2-amino acetate hydrochloride monohydrate], the inhibition at 1 µM (IL-1; [4]) was 95%.

`C[C@]12CCC(=O)C=C1CC[C@@H]1[C@@H]2[C@@H](O)C[C@@]2(C)[C@H]1CC[C@]2(O)C(=O)CO` [Hydrocortisone, reference compound] was tested, and the “% Inhibition of granuloma, Dry wt.” value [2] was 37.5%, the “% Inhibition of granuloma, Wet wt.” value [2] was 20.5% and the “reduction in the mortality” value [3] was 21%.

With `COc1cc(OC)c(C2CCCCC2OC(=O)[C@H](C)N)c(O)c1C(=O)/C=C/c1cccc(Br)c1` (mixture of isomers) [Compound 7 of Table 2, trans-(+/-)-2-[4,6-Dimethoxy-2-hydroxy-3-(3-(3-bromophenyl)prop-2-(E)-enoyl)phenyl]cyclohexyl-2-(S)-amino propanoate] the inhibition at 1 µM (IL-1; [4]) was 35%.

In the case of `COc1cc(OC)c(C2CCCCC2)c(O)c1C(=O)/C=C/c1ccc(Cl)cc1` [Compound 22 of Table 2], the inhibition at 12 µM (IL-1; Homo sapiens, 12 μM, read-out: IL-1 Rel. Inhib.) is reported as 30%.

Work on `COc1cc(OC)c([C@@H]2CCCC[C@H]2O)c(O)c1C(=O)/C=C/c1cccc(N)c1` (relative stereo) [Compound 28 of Table 2] yielded an inhibition at 1 µM (IL-1; [4]) of 33%.

With `COc1ccc(C(=O)/C=C/c2cccc(Br)c2)c(O)c1[C@@H]1CCCC[C@H]1O` (racemic) [Compound 16 of Table 2, trans-(+/-)-2-[6-Methoxy-2-hydroxy-3-(3-(3-bromophenyl))prop-2-(E)-enoyl]phenylcyclohexanol] the “IL-1 Rel. Inhib.” value (IL-1; 11.6 μM) was 81%.
